The text below walks through data of US11597708B2, “Inhibitors of heat shock factors and uses thereof” (HSF Pharmaceuticals SA, priority 2016, dated 2023).

The subject of series [1] is hsp70b promoter-driven fluc gene. The series can be described thus: Corroborating experiment in a cell line containing an hsp70b promoter-driven fluc gene. The format is cell-based. The conditions noted are these: data not shown. The procedure:
The compounds of the afore-mentioned biased sublibrary were screened in cell line Z74 at 12.5 and 25 μM concentrations. Typically, Z74 cultures in 96-well plates were exposed to compound or vehicle for 2 h, heat-treated at 43.0° C. for 30 min, and incubated further for 6 h at 37° C. to allow for accumulation of the luciferases. RLuc and FLuc activities were determined, typically using the Dual-Glo® Luciferase Assay System (Promega Corp., Madison, Wis.), and reading luciferase light counts in a Wallac Microbeta Trilux-1450 Luminometer (PerkinElmer, Waltham, Mass.). IHSF 001 was one of two library compounds that inhibited RLuc expression but not FLuc expression in heat-treated Z74 cells (Table 1; FIG. 2A). Therefore, IHSF 001 is an inhibitor of HSF1 function that specifically acts through the HSF1 DNA-binding domain. […] A corroborating experiment utilized a cell line containing an hsp70b promoter-driven fluc gene. […] IHSF 001 is (E)-ethyl 4-oxo-4-(thiazol-2-ylamino)but-2-enoate. The compound can be obtained from commercial sources (e.g., AKE-PB-90340538, Akos).

In the next series the test system is human cancer cell lines. The experiment in a line: Viability of human cancer cell lines (overall statements). The conditions noted are these: 96-hour exposure; sensitivity varied greatly; no effect of p53 status. The format is cell-based. The procedure:
Cultures of HeLa cells were exposed for 96 hours to different concentrations of IHSF 001, 058 and 115, and viability was assessed using an Alamar Blue assay. It is noted that this standard assay examines attached cells only. This subject will be discussed in more detail below. […] The relative cytotoxicity of the compounds appears to parallel their respective activities as inhibitors of HSF1 function (inhibition of RLuc expression in Z74 cells). We next examined the viability of different human cancer cell lines subsequent to a 96-hour exposure to compound 115 (Table 3). HSF1 was reported as being required for optimal p21 expression and for p53-mediated cell cycle arrest in response to genotoxins. Logan, I. R. et al. (2009) Nucleic Acids Res. 37: 2962-2971. […] Cell lines of different p53 status were included in the experiments in order to find out whether sensitivity to IHSF 115 was related to p53 status. […] No effect of p53 status could be discovered. It is noted that a number of additional HSF inhibitors of the present disclosure were tested and found to effectively reduce the viability of human cancer cells.

The test system of another series is PC-3 tumor xenograft. The series can be described thus: Human prostate cancer PC-3 xenograft model in athymic mice. The format is in vivo. The conditions noted are these: for tumor growth: period of daily administration (7 days). The procedure:
Prostate cancer cell line PC-3 was obtained from ATTC and grown in tissue culture under standard conditions. Groups (8 animals) of athymic mice (6-7 weeks old, male, obtained from Harlan) were inoculated subcutaneously on the right flank with 5×10^6 PC-3 cells. Cells were administered as a 1:1 mixture of cells in medium and Matrigel. Treatment was initiated when tumor size reached about 200 mg, at which time the mice were randomized. Of the various groups in the experiment, one group received a daily intravenous dose (via the tail vein) of 2 mg IHSF 115 in an aqueous solution of Kleptose HPB (see Example 2.1) for 7 days, followed by additional dosing with 2 mg IHSF 115 every other day. Another group received a daily dose of 0.8 mg IHSF 115 in an aqueous solution of Kleptose HPB (see Example 2.1) for 7 days, followed by additional dosing with 0.8 mg IHSF 115 every other day. A control group was subjected to same regimen, administering vehicle (Kleptose HPB solution) only. Tumor size and weight were assessed periodically and recorded. Tumor size was estimated using calipers. Calculation: tumor weight (mg)=(a×b^2/2) where ‘b’ is the smallest diameter and ‘a’ is the largest diameter. […] Loss of weight for the period was less than 4%.

With `CCOC(=O)/C=C/C(=O)Nc1nccs1` [IHSF 001, (E)-ethyl 4-oxo-4-(thiazol-2-ylamino)but-2-enoate], in series [1], the “FLuc expression in hsp70b promoter-driven fluc line” value is reported as “inhibit FLuc expression”.

Consider `CN(C(=O)/C=C/C1=NCCCO1)c1ncc(-c2cccnc2)s1` [IHSF 115, (E)-3-(5,6-Dihydro-4H-[1,3]oxazin-2-yl)-N-methyl-N-(5-pyridin-3-yl-thiazol-2-yl)-acrylamide], for which the “viability of human cancer cell lines” value in the series on human cancer cell lines is “reduced viability in all cell lines tested”. The values for the tumor growth entry in the series with PC-3 tumor xenograft (0.8 mg daily dose in aqueous Kleptose HPB) and with PC-3 tumor xenograft (2 mg daily intravenous in aqueous Kleptose HPB) were “smaller effect” and “substantial (and statistically significant) reduction in tumor growth”, respectively. Besides, the toxicity result with PC-3 tumor xenograft (athymic mice, intravenous via the tail vein) is given as “No toxicity was observed, except for some local swelling in the inoculation region”. Further, the “Loss of weight for the period” value in the series with PC-3 tumor xenograft (period of daily administration) is “less than 4%”.
